Data as given in patent US20060100287A1, “Insulin-like growth factor-1 secretagogue” (priority 2004, published 2006).

System: IGF-1
Test: Test Example 3: action of various capsaicinoids on mouse IGF-1 (test solutions on back skin)
Assay type: in vivo
[1] = test solution containing 0.01% by mass in ethanol/physiological saline, 0.2 mL/cm^2 on back skin, 30 minutes after application, p<0.01 (FIG. 3, FIG. 4)

`CCCCCCCCC(=O)NCc1ccc(O)c(OC)c1` [nonylic vanillylamide] was tested, and the “amount of IGF-1 in the mouse back skin compared to the base preparation” value (“amount … compared to the base preparation” below) (mouse, in vivo) was “significantly elevated”.
For `COc1cc(COC(=O)CCCC/C=C/C(C)C)ccc1O` [capsiate], the “amount … compared to the base preparation” value [1] was “significantly elevated”.
`COc1cc(CNC(=O)CCCC/C=C/C(C)C)ccc1O` [capsaicin, (6E)-N-[(4-hydroxy-3-methoxyphenyl)methyl]-8-methyl-6-nonenamide, reference compound] was tested, and the “amount … compared to the base preparation” value [1] was “significantly elevated”.
With `COc1cc(CNC(=O)CCCCCCC(C)C)ccc1O` [dihydrocapsaicin] the “amount … compared to the base preparation” value [1] was “significantly elevated”.
`COc1cc(COC(=O)CCCCCC(C)C)ccc1O` [nordihydrocapsiate] was tested, and the “amount … compared to the base preparation” value [1] was “significantly elevated”.
In the case of `COc1cc(COC(=O)CCCCCCC(C)C)ccc1O` [dihydrocapsiate], the “amount … compared to the base preparation” value [1] is reported as “significantly elevated”.
With `COc1cc(CNC(=O)CCCCCC(C)C)ccc1O` [nordihydrocapsaicin] the “amount … compared to the base preparation” value (mouse, in vivo) was “significantly elevated”.
